# Numbered stars: 1 amine (or outer) side, 2 acyl side, 3 side chain; on linkers, the order of the positions; unused ones are H or OH. Bridge positions count the residues as written; N and C are the ends. Square brackets hold non-standard residues; d marks the D form. Peptide text beside a SMILES is read from it. * marks the point of attachment. Bip(4'-NHAc) = CC(=O)Nc1ccc(-c2ccc(C[C@H](N)C(=O)O)cc2)cc1; X31 = N=C(N)Nc1ccc(-c2ccc(C[C@H](N[*:1])C(=O)[*:2])cc2)cc1; Trp(1-CH2COOH) = N[C@@H](Cc1cn(CC(=O)O)c2ccccc12)C(=O)O; Phe(3-CF3) = N[C@@H](Cc1cccc(C(F)(F)F)c1)C(=O)O; Ala(morpholin-4-yl) = N[C@@H](CN1CCOCC1)C(=O)O; Phe(4-COOH) = N[C@@H](Cc1ccc(C(=O)O)cc1)C(=O)O; Bip = N[C@@H](Cc1ccc(-c2ccccc2)cc1)C(=O)O; Abu(3R-NH2) = C[C@@H](N)[C@H](N)C(=O)O; Phe(2-Cl) = N[C@@H](Cc1ccccc1Cl)C(=O)O; Phe(3-Me) = Cc1cccc(C[C@H](N)C(=O)O)c1; Abu(3S-NH2) = C[C@H](N)[C@H](N)C(=O)O; Val(3-OH) = CC(C)(O)[C@H](N)C(=O)O; Aad = N[C@@H](CCCC(=O)O)C(=O)O; Cha = N[C@@H](CC1CCCCC1)C(=O)O; aThr = C[C@H](O)[C@H](N)C(=O)O; dDab = NCC[C@@H](N)C(=O)O; Carboxymethyl = O=C(O)C*; NMeA = CN[C@@H](C)C(=O)O; Orn = NCCC[C@H](N)C(=O)O; Dab = NCC[C@H](N)C(=O)O; Dap = NC[C@H](N)C(=O)O; X9 = O=C(CCF)*
# Target: T1, Alexa fluor-647 labeled human PD-L1-Ig binding to Jurkat cell line over-expressing human PD-1 (Homo sapiens, UniProt Q15116)
# T1 construct: expressed in transfected cells; host or cells: Jurkat
# Test: Jurkat-PD-1 Cell Binding High-Content Screening Assay (CBA): Method 3 (Alexa fluor-647 labeled PD-L1-Ig)
# Conditions: Jurkat-PD-1 cells, Alexa fluor-647 labeled PD-L1-Ig 177 nM; head μM; read-out: CBA Method 3 μM
# Summary of the method: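 Jurkat cells over-expressing human PD-1 in RPMI/10% FCS were preincubated 2 h at 37 °C with compound, then exposed 1 h to Alexa fluor-647 labeled human PD-L1-Ig (177 nM final). Cells fixed in 4% paraformaldehyde with Hoechst 33342 and binding quantified by high-content imaging.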
# T1 sequence (Q15116 25-288): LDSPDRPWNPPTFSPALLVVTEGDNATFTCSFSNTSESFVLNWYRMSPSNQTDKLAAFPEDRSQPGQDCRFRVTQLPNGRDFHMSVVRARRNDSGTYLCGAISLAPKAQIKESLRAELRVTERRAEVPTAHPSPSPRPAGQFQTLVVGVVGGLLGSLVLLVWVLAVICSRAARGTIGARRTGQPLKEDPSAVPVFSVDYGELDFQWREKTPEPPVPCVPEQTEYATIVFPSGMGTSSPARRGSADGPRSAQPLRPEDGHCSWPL
row,SMILES,IC50 [µM]
1,CC(=O)Nc1ccc(-c2ccc(C[C@@H]3NC(=O)[C@H](Cc4cccc(C)c4)NC(=O)[C@H](CC(=O)O)NC(=O)[C@H](Cc4ccc(C(=O)O)cc4)NC(=O)[C@H](CN4CCOCC4)NC(=O)CSC[C@@H](C(=O)N[C@@H](CCN)C(N)=O)NC(=O)[C@H](CCCC(=O)O)NC(=O)[C@H](C(C)C)NC(=O)[C@H](CC4CCCCC4)NC(=O)[C@H](CCN)NC(=O)[C@@H](CC(C)C)NC(=O)[C@H](C)N(C)C(=O)[C@H](Cc4ccc(C(=O)O)cc4)NC(=O)[C@H](Cc4ccc(-c5ccccc5)cc4)NC3=O)cc2)cc1 [Example 5255] ({CH2CO}-[Ala(morpholin-4-yl)][Phe(4-COOH)]D[Phe(3-Me)][Bip(4'-NHAc)][Bip][Phe(4-COOH)][NMeA][dL][Dab][Cha]V[Aad]C[Dab]-NH2; thioether N-14),0.0022
2,CC(C)C[C@H]1NC(=O)[C@H](C)N(C)C(=O)[C@H](Cc2ccc(C(=O)O)cc2)NC(=O)[C@H](Cc2ccc(-c3ccccc3)cc2)NC(=O)[C@H](Cc2ccc(C(=O)O)cc2)NC(=O)[C@H](Cc2cccc(C(F)(F)F)c2)NC(=O)[C@H](CC(=O)O)NC(=O)[C@H](Cc2ccc(C(=O)O)cc2)NC(=O)[C@H](CN2CCOCC2)NC(=O)CSC[C@@H](C(=O)N[C@@H](CCN)C(N)=O)NC(=O)[C@H](CNC(=O)CCF)NC(=O)[C@H](C(C)C)NC(=O)[C@H](CC2CCCCC2)NC(=O)[C@H](CCN)NC1=O [Example 5230] ({CH2CO}-[Ala(morpholin-4-yl)][Phe(4-COOH)]D[Phe(3-CF3)][Phe(4-COOH)][Bip][Phe(4-COOH)][NMeA][dL][Dab][Cha]V[Dap](X9)C[Dab]-NH2; thioether N-14),0.03
3,CC(C)C[C@H]1NC(=O)[C@H](C)N(C)C(=O)[C@H](Cc2ccc(-c3ccc(NC(=N)N)cc3)cc2)NC(=O)[C@H](Cc2ccc(-c3ccccc3)cc2)NC(=O)[C@H](Cc2ccc(OCC(=O)O)cc2)NC(=O)[C@H](Cc2cccc(C(F)(F)F)c2)NC(=O)[C@H](CC(=O)O)NC(=O)[C@H](Cc2ccc(C(=O)O)cc2)NC(=O)[C@H]([C@H](C)N)NC(=O)CSC[C@@H](C(=O)N[C@H](CCN)C(N)=O)NC(=O)[C@H](CO)NC(=O)[C@H]([C@H](C)O)NC(=O)[C@H](CC2CCCCC2)NC(=O)[C@H](CCN)NC1=O [Example 5231] ({CH2CO}-[Abu(3S-NH2)][Phe(4-COOH)]D[Phe(3-CF3)]Y(Carboxymethyl)[Bip][X31][NMeA][dL][Dab][Cha][aThr]SC[dDab]-NH2; thioether N-14),0.14
4,CC(C)C[C@@H]1NC(=O)[C@H](Cc2c[nH]c3ccccc23)NC(=O)[C@H](CC(=O)O)NC(=O)[C@H](Cc2ccc(C(=O)O)cc2)NC(=O)[C@H](Cc2ccc(OCC(=O)O)cc2)NC(=O)CSC[C@@H](C(=O)N[C@@H](CCCN)C(N)=O)NC(=O)[C@H](C(C)C)NC(=O)[C@H]([C@@H](C)O)NC(=O)[C@H](CC2CCCCC2)NC(=O)[C@H](CCN)NC(=O)[C@@H](CC(C)C)NC(=O)[C@H](C)N(C)C(=O)[C@H](C(C)C)NC(=O)[C@H](Cc2ccc(-c3ccccc3)cc2)NC1=O [Example 5140] ({CH2CO}-Y(Carboxymethyl)[Phe(4-COOH)]DWL[Bip]V[NMeA][dL][Dab][Cha]TVC[Orn]-NH2; thioether N-14),0.01
5,CC(C)[C@@H]1NC(=O)[C@H](Cc2c[nH]c3ccccc23)NC(=O)[C@H](CC(=O)O)NC(=O)[C@H](Cc2ccc(O)cc2)NC(=O)[C@H](CC2CCCCC2)NC(=O)CSC[C@@H](C(=O)N[C@@H](CCN)C(N)=O)NC(=O)[C@H]([C@H](C)O)NC(=O)[C@H](C(C)(C)O)NC(=O)[C@H](CC2CCCCC2)NC(=O)[C@H](CCC(=O)O)NC(=O)[C@@H](C)NC(=O)[C@H](C)N(C)C(=O)[C@H](C(C)C)NC(=O)[C@H](Cc2ccc(-c3ccccc3)cc2)NC1=O [Example 5150] ({CH2CO}-[Cha]YDWV[Bip]V[NMeA][dA]E[Cha][Val(3-OH)][aThr]C[Dab]-NH2; thioether N-14),0.06
6,Cc1cccc(C[C@@H]2NC(=O)[C@H](CC(=O)O)NC(=O)[C@H](Cc3ccc(C(=O)O)cc3)NC(=O)[C@H](C)NC(=O)CSC[C@@H](C(=O)N[C@@H](CCN)C(N)=O)NC(=O)[C@H](CCC(=O)O)NC(=O)[C@H](C(C)C)NC(=O)[C@H](CC3CCCCC3)NC(=O)[C@H](CCN)NC(=O)[C@@H](CC(C)C)NC(=O)[C@H](C)N(C)C(=O)[C@H](Cc3ccc(OCC(=O)O)cc3)NC(=O)[C@H](Cc3ccc(-c4ccccc4)cc3)NC(=O)[C@H](Cc3ccc(C(=O)O)cc3)NC2=O)c1 [Example 5138] ({CH2CO}-A[Phe(4-COOH)]D[Phe(3-Me)][Phe(4-COOH)][Bip]Y(Carboxymethyl)[NMeA][dL][Dab][Cha]VEC[Dab]-NH2; thioether N-14),0.03

# Same assay, conditions: Jurkat-PD-1 cells, Alexa fluor-647 labeled PD-L1-Ig 177 nM; nM; read-out: CBA Method 3
row,SMILES,IC50 [µM]
1,CC(C)C[C@H]1NC(=O)[C@H](C)N(C)C(=O)[C@H](CCC(N)=O)NC(=O)[C@H](Cc2ccc(-c3ccccc3)cc2)NC(=O)[C@H](Cc2ccc(OCC(=O)O)cc2)NC(=O)[C@H](Cc2cccc(C(F)(F)F)c2)NC(=O)[C@H](CC(=O)O)NC(=O)[C@H](Cc2ccc(OCC(=O)O)cc2)NC(=O)[C@H]([C@@H](C)N)NC(=O)CSC[C@@H](C(=O)N[C@@H](CCN)C(N)=O)NC(=O)[C@H](CCCN)NC(=O)[C@H](C(C)C)NC(=O)[C@H](CC2CCCCC2)NC(=O)[C@H](CCN)NC1=O [Example 5220] ({CH2CO}-[Abu(3R-NH2)]Y(Carboxymethyl)D[Phe(3-CF3)]Y(Carboxymethyl)[Bip]Q[NMeA][dL][Dab][Cha]V[Orn]C[Dab]-NH2; thioether N-14),0.0024
2,CC(C)C[C@H]1NC(=O)[C@H](C)N(C)C(=O)[C@H](Cc2ccc(C(=O)O)cc2)NC(=O)[C@H](Cc2ccc(-c3ccccc3)cc2)NC(=O)[C@H](Cc2ccc(C(=O)O)cc2)NC(=O)[C@H](Cc2cccc(C(F)(F)F)c2)NC(=O)[C@H](CC(=O)O)NC(=O)[C@H](Cc2ccc(C(=O)O)cc2)NC(=O)[C@H](CC2CCCCC2)NC(=O)CSC[C@@H](C(=O)N[C@@H](CCN)C(N)=O)NC(=O)[C@H](CCC(=O)O)NC(=O)[C@H](C(C)C)NC(=O)[C@H](CC2CCCCC2)NC(=O)[C@H](CCN)NC1=O [Example 5195] ({CH2CO}-[Cha][Phe(4-COOH)]D[Phe(3-CF3)][Phe(4-COOH)][Bip][Phe(4-COOH)][NMeA][dL][Dab][Cha]VEC[Dab]-NH2; thioether N-14),0.0017
3,Cc1cccc(C[C@@H]2NC(=O)[C@H](CC(=O)O)NC(=O)[C@H](Cc3ccc(OCC(=O)O)cc3)NC(=O)[C@H](CCN)NC(=O)CSC[C@@H](C(=O)N[C@@H](CCN)C(N)=O)NC(=O)[C@H](CCCN)NC(=O)[C@H](C(C)C)NC(=O)[C@H](CC3CCCCC3)NC(=O)[C@H](CCN)NC(=O)[C@@H](CC(C)C)NC(=O)[C@H](C)N(C)C(=O)[C@H](CCC(N)=O)NC(=O)[C@H](Cc3ccc(-c4ccccc4)cc3)NC(=O)[C@H](Cc3ccc(C(=O)O)cc3)NC2=O)c1 [Example 5179] ({CH2CO}-[Dab]Y(Carboxymethyl)D[Phe(3-Me)][Phe(4-COOH)][Bip]Q[NMeA][dL][Dab][Cha]V[Orn]C[Dab]-NH2; thioether N-14),0.0039
4,Cc1cccc(C[C@@H]2NC(=O)[C@H](CC(=O)O)NC(=O)[C@H](Cc3ccc(OCC(=O)O)cc3)NC(=O)[C@H](Cc3cn(CC(=O)O)c4ccccc34)NC(=O)CSC[C@@H](C(=O)N[C@@H](CCN)C(N)=O)NC(=O)[C@H](CCCN)NC(=O)[C@H](C(C)C)NC(=O)[C@H](CC3CCCCC3)NC(=O)[C@H](CCN)NC(=O)[C@@H](CC(C)C)NC(=O)[C@H](C)N(C)C(=O)[C@H](CCC(N)=O)NC(=O)[C@H](Cc3ccc(-c4ccccc4)cc3)NC(=O)[C@H](Cc3ccc(C(=O)O)cc3)NC2=O)c1 [Example 5171] ({CH2CO}-[Trp(1-CH2COOH)]Y(Carboxymethyl)D[Phe(3-Me)][Phe(4-COOH)][Bip]Q[NMeA][dL][Dab][Cha]V[Orn]C[Dab]-NH2; thioether N-14),0.0044
5,Cc1cccc(C[C@@H]2NC(=O)[C@H](CC(=O)O)NC(=O)[C@H](Cc3ccc(OCC(=O)O)cc3)NC(=O)[C@H](Cc3ccccc3Cl)NC(=O)CSC[C@@H](C(=O)N[C@@H](CCN)C(N)=O)NC(=O)[C@H](CCCN)NC(=O)[C@H](C(C)C)NC(=O)[C@H](CC3CCCCC3)NC(=O)[C@H](CCN)NC(=O)[C@@H](CC(C)C)NC(=O)[C@H](C)N(C)C(=O)[C@H](CCC(N)=O)NC(=O)[C@H](Cc3ccc(-c4ccccc4)cc3)NC(=O)[C@H](Cc3ccc(C(=O)O)cc3)NC2=O)c1 [Example 5291] ({CH2CO}-[Phe(2-Cl)]Y(Carboxymethyl)D[Phe(3-Me)][Phe(4-COOH)][Bip]Q[NMeA][dL][Dab][Cha]V[Orn]C[Dab]-NH2; thioether N-14),0.0002
6,Cc1cccc(C[C@@H]2NC(=O)[C@H](CC(=O)O)NC(=O)[C@H](Cc3ccc(OCC(=O)O)cc3)NC(=O)[C@H](C)NC(=O)CSC[C@@H](C(=O)N[C@@H](CCN)C(N)=O)NC(=O)[C@H](CCCN)NC(=O)[C@H](C(C)C)NC(=O)[C@H](CC3CCCCC3)NC(=O)[C@H](CCN)NC(=O)[C@@H](CC(C)C)NC(=O)[C@H](C)N(C)C(=O)[C@H](CCC(N)=O)NC(=O)[C@H](Cc3ccc(-c4ccccc4)cc3)NC(=O)[C@H](Cc3ccc(C(=O)O)cc3)NC2=O)c1 [Example 5266] ({CH2CO}-AY(Carboxymethyl)D[Phe(3-Me)][Phe(4-COOH)][Bip]Q[NMeA][dL][Dab][Cha]V[Orn]C[Dab]-NH2; thioether N-14),0.002
7,CC(C)C[C@H]1NC(=O)[C@H](C)N(C)C(=O)[C@H](CCC(N)=O)NC(=O)[C@H](Cc2ccc(-c3ccccc3)cc2)NC(=O)[C@H](Cc2ccc(OCC(=O)O)cc2)NC(=O)[C@H](Cc2cccc(C(F)(F)F)c2)NC(=O)[C@H](CC(=O)O)NC(=O)[C@H](CCC(N)=O)NC(=O)[C@H](CC2CCCCC2)NC(=O)CSC[C@@H](C(=O)N[C@@H](CCN)C(N)=O)NC(=O)[C@H](CCCN)NC(=O)[C@H](C(C)C)NC(=O)[C@H](CC2CCCCC2)NC(=O)[C@H](CCN)NC1=O [Example 5248] ({CH2CO}-[Cha]QD[Phe(3-CF3)]Y(Carboxymethyl)[Bip]Q[NMeA][dL][Dab][Cha]V[Orn]C[Dab]-NH2; thioether N-14),0.0006

# Reference: US20240409585A1, “MACROCYCLIC IMMUNOMODULATORS” (priority 2021, published 2024)
